The values below come from patent publication US20050209278A1, “Piperidinyl- and piperazinyl-sulfonylmethyl hydroxamic acids and their use as protease inhibitors” (priority 2002, published 2005).

One experiment deals with T1, MMP-2 (Homo sapiens, UniProt P08253).
T1 construct: made in house; host or cells: MMP-2-transfected p2AHT2 cells
T1 sequence (P08253 110-660): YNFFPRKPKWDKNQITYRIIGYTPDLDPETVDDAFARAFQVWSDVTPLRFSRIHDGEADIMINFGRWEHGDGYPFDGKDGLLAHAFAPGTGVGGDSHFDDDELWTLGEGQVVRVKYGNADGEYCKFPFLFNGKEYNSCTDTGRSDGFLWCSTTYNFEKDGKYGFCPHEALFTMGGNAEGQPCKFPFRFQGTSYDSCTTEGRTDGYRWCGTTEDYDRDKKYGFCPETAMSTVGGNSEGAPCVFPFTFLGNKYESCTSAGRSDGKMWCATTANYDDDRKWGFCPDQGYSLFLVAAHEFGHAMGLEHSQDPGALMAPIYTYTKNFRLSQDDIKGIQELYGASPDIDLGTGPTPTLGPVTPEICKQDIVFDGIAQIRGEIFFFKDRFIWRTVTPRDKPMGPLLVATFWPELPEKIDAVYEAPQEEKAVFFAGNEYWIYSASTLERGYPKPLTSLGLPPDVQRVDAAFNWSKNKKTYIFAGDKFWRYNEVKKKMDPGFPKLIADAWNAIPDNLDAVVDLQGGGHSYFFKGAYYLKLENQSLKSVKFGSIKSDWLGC
As to the kind of experiment: In vitro MMP inhibition, IC50 determination (fluorogenic substrate I). It is filed as biochemical. Conditions: value in parenthesis; read-out: MMP-2 (IC-50). How it is done:
Several hydroxamic acids and salts thereof were analyzed in in vitro assays to determine their ability to inhibit the MMP cleavage of peptide substrates. […] and IC50 constants were calculated from the assayed hydroxamic acid-MMP interactions.
Human recombinant MMP-1, MMP-2, MMP-9, MMP-13, and MMP-14 were used in this assay. All enzymes were prepared in Assignee's laboratories following usual laboratory procedures. Protocols for the preparation and use of these enzymes are available in the scientific literature. See, e.g., Enzyme Nomenclature (Academic Press, San Diego, Calif., 1992) (and the citations therein). See also, Freije et al., “Molecular cloning and expression of collagenase-3, a novel human matrix metalloproteinase produced by breast carcinomas,” J Biol. Chem., 269(24), 16766-16773 (1994).
The MMP-2 proenzyme was purified by gelatin Sepharose chromatography from MMP-2-transfected p2AHT2 cells provided by Dr. Gregory Goldberg of Washington University (St. Louis, Mo.).
All MMPs were activated using 4-aminophenylmercuric acetate (“APMA”, Sigma Chemical, St. Louis, Mo.) or trypsin. MMP-9 also was activated using human recombinant MMP-3 (purified in Assignee's laboratory following standard cloning and purification techniques).
Two fluorogenic, methoxycoumarin-containing polypeptide substrates were used in the MMP inhibition assays: [drawing 427] Here, “Dpa” is 3-(2,4-dinitrophenyl)-L-2,3-diaminopropionyl group, and “MCA” is 7-methoxycoumarin-4-yl acetyl. Substrate (I) was purchased from Baychem (Redwood City, Calif.), and substrate II was prepared Assignee's laboratory. Substrate I was used in the IC50 determination assays, while substrate II was used in the Ki determination assays. In the absence of MMP inhibitory activity, either substrate is cleaved at the Gly-Leu peptide bond. This cleavage separates the highly fluorogenic peptide from the 2,4-dinitrophenyl quencher, thus resulting in increase of fluorescent intensity.
The stock solutions of the assayed hydroxamic acids (or salts thereof) were prepared in 1% dimethyl sulfoxide (DMSO). These stock solutions were diluted in Buffer A (100 mM Tris-HCl, 100 mM NaCl, 10 mM CaCl2, 0.05% polyoxyethylene 23 lauryl ether, pH 7.5) to obtain solutions with different hydroxamic acid concentrations, i.e., assay solutions with different concentrations of the assayed MMP inhibitory compound. The experiment controls contained the same amount of Buffer A/DMSO as the assayed sample, but contained no hydroxamic acid (or salt thereof).
The assays from which the IC50 determinations were made were performed as follows. The MMPs were activated with either trypsin or APMA (4-aminophenylmercuric acetate, Sigma Chemical, St. Louis, Mo.). The assayed hydroxamic acid samples were incubated in Microfluor™ White Plates (Dynatech, Chantilly, Va.) and analyzed on a Perkin Elmer L550 plate reader (Norwalk, Conn.). The excitation wavelength was 328 nm, and the emission wavelength—415 nm. All samples (assayed hydroxamic acids and controls) were incubated in separate plates at room temperature in the presence of 4 μM of MMP substrate (I). As stated in the previous paragraph, samples containing varying concentrations of the same assayed hydroxamic acid were prepared. Inhibition was measured as a reduction in fluorescent intensity as a function of MMP inhibitor concentration.
The above protocols were used to determine IC50 constants and Ki values for the compounds in Examples 1-27 above. All values in Table 2 are given in nM units. The IC50 measurements are in parenthesis.

The next experiment has as its target T2, MMP-14 (Homo sapiens, UniProt P50281).
T2 construct: The catalytic domain enzyme was expressed in E. coli inclusion bodies, solubilized in urea; made in house
Put plainly: In vitro MMP inhibition, Ki determination (fluorogenic substrate II). It is filed as biochemical. Conditions: value not in parenthesis; read-out: MMP-14 Ki. The gist of the method:
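E. coli-expressed, refolded MMP-14 catalytic domain, activated with APMA or trypsin, in 100 mM Tris-HCl pH 7.5, 100 mM NaCl, 10 mM CaCl2, 0.05% Brij-type detergent. Apparent Ki by Morrison-equation regression of velocity vs inhibitor and enzyme concentration.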

What is called Ki is the dissociation constant of the complex between target and ligand, obtained from inhibition or displacement. Turning to `CCCC(C)Cc1ccc(N2CCN(S(=O)(=O)C3(C(=O)NO)CCN(CCOC)CC3)CC2)cc1` (stereo not drawn) [Example 189], the IC50 on MMP-2 came out at 0.0019 µM. The Ki at MMP-14 was over 10 µM.
As to `CCC(C)Cc1ccc(N2CCN(S(=O)(=O)C3(C(=O)NO)CCN(CCOC)CC3)CC2)cc1` (stereo not drawn) [Example 190], the IC50 at MMP-2 came to 0.0016 µM. Also, the Ki at MMP-14 was determined as 6.1 µM.
With `COCCN1CCC(C(=O)NO)(S(=O)(=O)N2CCN(c3ccc(CCCCC(C)C)cc3)CC2)CC1` [Example 191], the IC50 on MMP-2 is under 0.0001 µM. Also, the Ki at MMP-14 amounted to 6.69 µM.
`COCCN1CCC(C(=O)NO)(S(=O)(=O)N2CCN(c3ccc(CC(C)C)cc3)CC2)CC1` [Example 192]: the IC50 on MMP-2 came out at 0.0013 µM. The Ki at MMP-14 stood at 6.98 µM.
On the same counts, the results for `CCc1ccc(N2CCN(S(=O)(=O)C3(C(=O)NO)CCN(CCOC)CC3)CC2)cc1` [Example 193] are 0.0002 µM and 0.403 µM.
The like results for `COCCN1CCC(C(=O)NO)(S(=O)(=O)N2CCN(c3ccc(C)cc3)CC2)CC1` [Example 194] were, in that order, 0.0005 µM and 0.307 µM.
As for `COCCN1CCC(C(=O)NO)(S(=O)(=O)N2CCN(c3ccccc3)CC2)CC1` [Example 195], the IC50 on MMP-2 worked out at 0.0024 µM. Moreover, the Ki on MMP-14 came to 0.414 µM.
The like results for `COCCN1CCC(C(=O)NO)(S(=O)(=O)N2CCN(c3nc4ccccc4o3)CC2)CC1` [Example 196] were, in that order, 0.0305 µM and 6.84 µM.
On the same counts, the results for `CCCCCc1ccc(N2CCN(S(=O)(=O)C3(C(=O)NO)CCOCC3)CC2)nn1` [Example 197] are 0.0191 µM and over 10 µM.
On to `O=C(NO)C1(S(=O)(=O)N2CCN(c3ccc(Cl)nn3)CC2)CCOCC1` [Example 198], for which the IC50 at MMP-2 turned out to be 0.0182 µM. Also, the Ki at MMP-14 is 1.28 µM.
The like results for `CCCCCCc1ccc(N2CCN(S(=O)(=O)C3(C(=O)NO)CCN(CCOC)CC3)CC2)cc1` [Example 199] were, in that order, under 0.0001 µM and 4.62 µM.
The like results for `CCCc1ccc(N2CCN(S(=O)(=O)C3(C(=O)NO)CCN(CCOC)CC3)CC2)cc1` [Example 200] were, in that order, under 0.0001 µM and 0.842 µM.
On the same counts, the results for `COCCN1CCC(C(=O)NO)(S(=O)(=O)N2CCN(c3ccc(Br)cc3)CC2)CC1` [Example 201] are under 0.0001 µM and 0.12 µM.
For `COCCN1CCC(C(=O)NO)(S(=O)(=O)N2CCN(c3ccc(OC(F)(F)F)cc3)CC2)CC1` [Example 202], the IC50 on MMP-2 was under 0.0001 µM. Further, the Ki at MMP-14 worked out at 0.623 µM.
For `O=C(NO)C1(S(=O)(=O)N2CCN(c3ccc(OC(F)(F)F)cc3)CC2)CCN(C2CC2)CC1` [Example 203], the IC50 on MMP-2 was under 0.0001 µM. Besides, at MMP-14, the Ki turned out to be 0.569 µM.
